Results on ten molecules are retold here after ChEMBL document CHEMBL1201862, “PubChem BioAssay data set” (2004).

Some test systems named below: HCC 2998; UO-31; NCI-H460; PC-3; A498; SF-295; OVCAR-8; UACC-257; SNB-19; HL-60; HOP-62; A549; NCI-H23; Malme-3M; ACHN; RXF 393; T47D; SW-620; KM12; 786-0.
What all share (test): growth of human tumour cells (NCI), 48 h

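All cell lines were grown in 96-well plates and treated with compound for 48 hours. GI50 = concentration required for 50% inhibition of growth.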 Activity calls are given as the source filed them. No stated cut-off is given here; in the data, active = GI50 up to about 1.1 µM and inactive = higher.

With `CC(=O)Oc1cc2c(cc1OCC(F)(F)F)[C@H]1CC[C@]3(C)[C@@H](OC(C)=O)CC[C@H]3[C@@H]1CC2=O`, the GI50 with HCC 2998 was 16.8 µM (inactive); in the experiment on UO-31, 16 µM (inactive); in the experiment on NCI-H460, 26.9 µM (inactive); in the experiment with PC-3, 14.5 µM (inactive); in the experiment with A498, 6.18 µM (inactive); in the experiment with SF-295 it was 25.1 µM (inactive). The GI50 in the experiment on OVCAR-8 was 20.9 µM (inactive); in the experiment on UACC-257 it was 18.9 µM (inactive); in the experiment on SNB-19 it was 18.8 µM (inactive); in the experiment on HL-60 it was 13.9 µM (inactive); in the experiment on HOP-62 it was 25.1 µM (inactive); in the experiment with A549 it was 17.6 µM (inactive). Besides, the GI50 in the experiment on NCI-H23 was 21.2 µM (inactive); in the experiment with Malme-3M, 16.8 µM (inactive); with ACHN, 18.9 µM (inactive); with RXF 393 it was 13.9 µM (inactive); with T47D it was 23.3 µM (inactive); in the experiment on SW-620, 21.7 µM (inactive). Further, the values for the GI50 with KM12 and in the experiment on 786-0 were 27.7 µM (inactive) and 26.4 µM (inactive), respectively.
As to `O=C(c1ccccc1)c1ccc2c(c1)nc1n2C(c2c(Cl)cccc2Cl)SC1` (stereo not given), the GI50 with HCC 2998 is > 100 µM (inactive); with UO-31, 23.9 µM (inactive); with NCI-H460, 40.2 µM (inactive); in the experiment with PC-3 it was 38.1 µM (inactive); in the experiment with A498, 58.7 µM (inactive); in the experiment with SF-295 it was 27.6 µM (inactive). The GI50 with OVCAR-8 was 63.7 µM (inactive); in the experiment on UACC-257, 95.5 µM (inactive); in the experiment with SNB-19 it was 77.1 µM (inactive); in the experiment on HL-60 it was 39.4 µM (inactive); with HOP-62 it was > 100 µM (inactive); in the experiment with A549 it was 32.7 µM (inactive). Besides, the GI50 was 47.4 µM (inactive) with NCI-H23; 97.5 µM (inactive) in the experiment with Malme-3M; 71.6 µM (inactive) in the experiment with ACHN; 79.8 µM (inactive) in the experiment with RXF 393; 14.7 µM (inactive) in the experiment with T47D; > 100 µM (inactive) with SW-620. Besides, the GI50 is 19.9 µM (inactive) with KM12 and 72.6 µM (inactive) with 786-0.
Consider `O=c1[nH]cc(F)c(=O)[nH]1` [FLUOROURACIL], for which the GI50 in the experiment with HCC 2998 is 1.6 µM (inactive); in the experiment on UO-31, 5.64 µM (inactive); in the experiment on NCI-H460, 1.05 µM (active); with PC-3, 50.6 µM (inactive); with A498, 10.2 µM (inactive); in the experiment with SF-295, 51.9 µM (inactive). In addition, the GI50 with OVCAR-8 is 20.2 µM (inactive); in the experiment with UACC-257, 95.7 µM (inactive); in the experiment on SNB-19, 116 µM (inactive); in the experiment on HL-60 it was 20.9 µM (inactive); in the experiment on HOP-62, 21.8 µM (inactive); in the experiment on A549, 2.11 µM (inactive). Further, the GI50 with NCI-H23 was 12.2 µM (inactive); in the experiment with Malme-3M, 22.5 µM (inactive); with ACHN it was 9.62 µM (inactive); with RXF 393, 54.1 µM (inactive); in the experiment on T47D it was 75.5 µM (inactive); in the experiment with SW-620, 27.7 µM (inactive). The GI50 in the experiment with KM12 is 9.51 µM (inactive); in the experiment with 786-0, 11.9 µM (inactive).
Regarding `Cc1ccc([N+](=O)[O-])cc1S(=O)(=O)Nc1ccc(C2=NNC(c3ccccc3)C2)cc1` (stereo not given), the GI50 in the experiment with HCC 2998 is 18.7 µM (inactive); with UO-31 it was 24.9 µM (inactive); in the experiment with NCI-H460, 15.1 µM (inactive); in the experiment on PC-3, 16.7 µM (inactive); in the experiment with A498, 13.2 µM (inactive); in the experiment with SF-295 it was 3.02 µM (inactive). The GI50 in the experiment on OVCAR-8 was 26.2 µM (inactive); in the experiment with UACC-257, 15.8 µM (inactive); in the experiment with SNB-19 it was 30.9 µM (inactive); in the experiment with HL-60, 16.4 µM (inactive); in the experiment on HOP-62 it was 11.5 µM (inactive); in the experiment on A549, 19.1 µM (inactive). Besides, the GI50 is 15.8 µM (inactive) in the experiment on NCI-H23; 17 µM (inactive) in the experiment on Malme-3M; 16.3 µM (inactive) in the experiment with ACHN; 8.36 µM (inactive) in the experiment with RXF 393; 4.23 µM (inactive) in the experiment with T47D; 25.4 µM (inactive) in the experiment on SW-620. For the same molecule, the GI50 with KM12 is 13.4 µM (inactive); in the experiment with 786-0, 20.8 µM (inactive).
In the case of `C[N+](C)(C)CCC(=O)N1C/C(=C\c2ccccc2)C(=O)/C(=C/c2ccccc2)C1`, the GI50 in the experiment with HCC 2998 was 3.47 µM (inactive); with UO-31, 18.9 µM (inactive); in the experiment on NCI-H460, 7.87 µM (inactive); in the experiment with PC-3, 2.49 µM (inactive); in the experiment on A498, 20.7 µM (inactive); in the experiment with SF-295, 3.78 µM (inactive). Further, the GI50 in the experiment on OVCAR-8 is 3.52 µM (inactive); in the experiment with UACC-257 it was 12.2 µM (inactive); in the experiment with SNB-19, 5.38 µM (inactive); in the experiment on HL-60, 2.27 µM (inactive); in the experiment with HOP-62, 18.1 µM (inactive); in the experiment with A549 it was 14.7 µM (inactive). The GI50 in the experiment on NCI-H23 is 10.4 µM (inactive); in the experiment on Malme-3M, 15.4 µM (inactive); in the experiment with ACHN it was 6.3 µM (inactive); with RXF 393, 11.8 µM (inactive); in the experiment on T47D it was 2.09 µM (inactive); in the experiment on SW-620, 0.904 µM (active). Moreover, the values for the GI50 with KM12 and in the experiment with 786-0 were 1.6 µM (inactive) and 2.38 µM (inactive), respectively.
As for `COC(=O)C1C(=O)C=CN([C@H](C)c2ccccc2)[C@@H]1Cc1ccc(OC)c(OCc2ccccc2)c1I` (stereo not given in full), the GI50 in the experiment with HCC 2998 was 14.3 µM (inactive); in the experiment on UO-31 it was 12 µM (inactive); in the experiment with NCI-H460 it was 15.5 µM (inactive); with PC-3, 13.8 µM (inactive); in the experiment on A498, 14.5 µM (inactive); in the experiment with SF-295 it was 16.9 µM (inactive). Moreover, the GI50 was 18.3 µM (inactive) in the experiment with OVCAR-8; 18.2 µM (inactive) in the experiment on UACC-257; 15 µM (inactive) in the experiment on SNB-19; 17.3 µM (inactive) with HL-60; 20.4 µM (inactive) in the experiment with HOP-62; 15.6 µM (inactive) with A549. Further, the GI50 is 17 µM (inactive) in the experiment on NCI-H23; 24.4 µM (inactive) with Malme-3M; 23.2 µM (inactive) with ACHN; 11.8 µM (inactive) in the experiment on RXF 393; 13.8 µM (inactive) in the experiment with T47D; 27.7 µM (inactive) with SW-620. The results for the GI50 in the experiment with KM12 and with 786-0 were 19.2 µM (inactive) and 16.4 µM (inactive), respectively.
As to `CN(C)c1ccc2c(SCC(=O)OCC(=O)[C@@]3(O)CC[C@H]4[C@@H]5CCC6=CC(=O)C=C[C@]6(C)[C@H]5C(=O)C[C@@]43C)c3ccc(N(C)C)cc3nc2c1`, the GI50 is 6 µM (inactive) in the experiment on HCC 2998; 10.3 µM (inactive) with UO-31; 3.24 µM (inactive) in the experiment on NCI-H460; 20.8 µM (inactive) in the experiment with PC-3; > 54.3 µM (inactive) in the experiment with A498; 14 µM (inactive) in the experiment with SF-295. Moreover, the GI50 in the experiment with OVCAR-8 is 8.11 µM (inactive); in the experiment on UACC-257, 15.7 µM (inactive); in the experiment on SNB-19, 23.7 µM (inactive); with HL-60, 1.24 µM (inactive); in the experiment on HOP-62, 57.9 µM (inactive); in the experiment with A549 it was 15.2 µM (inactive). In addition, the GI50 in the experiment with NCI-H23 was 16.7 µM (inactive); in the experiment on Malme-3M it was > 100 µM (inactive); in the experiment with ACHN, 4.53 µM (inactive); with RXF 393, 32.7 µM (inactive); with T47D, 17.4 µM (inactive); in the experiment with SW-620, 6.19 µM (inactive). Also, the GI50 with KM12 is 6.5 µM (inactive); in the experiment on 786-0, 4.16 µM (inactive).
Take `CCN(CC)C(=C(C(Cl)=C(Cl)Cl)[N+](=O)[O-])N(CC)CC`: the GI50 with HCC 2998 was > 100 µM (inactive); in the experiment on UO-31, 30.2 µM (inactive); with NCI-H460, 55 µM (inactive); in the experiment with PC-3, > 100 µM (inactive); with A498, > 100 µM (inactive); in the experiment on SF-295, > 100 µM (inactive). Besides, the GI50 in the experiment with OVCAR-8 was > 100 µM (inactive); in the experiment with UACC-257, 54.6 µM (inactive); in the experiment on SNB-19 it was 29.6 µM (inactive); in the experiment with HL-60 it was 29.6 µM (inactive); in the experiment with HOP-62 it was > 100 µM (inactive); in the experiment on A549, > 100 µM (inactive). For the same molecule, the GI50 in the experiment on NCI-H23 is 24.1 µM (inactive); in the experiment with Malme-3M, 19.6 µM (inactive); in the experiment with ACHN it was 72.6 µM (inactive); with RXF 393 it was 17.3 µM (inactive); with T47D, 61.8 µM (inactive); in the experiment with SW-620 it was 85.9 µM (inactive). Moreover, the GI50 in the experiment on KM12 and in the experiment with 786-0 was > 100 µM (inactive) in each case.
As to `COc1ccc(/C=C/c2cnnc3ccccc23)cc1OC`, the GI50 with HCC 2998 is > 10 µM (inactive); in the experiment on UO-31 it was 0.0374 µM (active); with NCI-H460, > 10 µM (inactive); with PC-3 it was > 10 µM (inactive); in the experiment on A498, > 10 µM (inactive); in the experiment with SF-295 it was > 10 µM (inactive). Also, the GI50 in the experiment on OVCAR-8, in the experiment on UACC-257, with SNB-19, in the experiment with HL-60, in the experiment with HOP-62 and with A549 was > 10 µM (inactive) throughout. Besides, the GI50 in the experiment on NCI-H23, with Malme-3M, in the experiment on ACHN, with RXF 393, with T47D and with SW-620 was > 10 µM (inactive) throughout. In addition, the GI50 with KM12 and with 786-0 was > 10 µM (inactive) each time.
For the molecule `O=C(Nc1cccc(Cl)c1)Nn1cnnc1`, the GI50 in the experiment on HCC 2998, in the experiment with UO-31, in the experiment with NCI-H460, in the experiment on PC-3, in the experiment on A498 and with SF-295 was > 100 µM (inactive) throughout. The GI50 is > 100 µM (inactive) with OVCAR-8; > 100 µM (inactive) in the experiment on UACC-257; > 100 µM (inactive) in the experiment on SNB-19; 66.5 µM (inactive) with HL-60; > 100 µM (inactive) in the experiment with HOP-62; > 100 µM (inactive) in the experiment with A549. The GI50 in the experiment with NCI-H23, in the experiment on Malme-3M, in the experiment with ACHN, in the experiment with RXF 393, in the experiment on T47D and in the experiment on SW-620 was > 100 µM (inactive) in each case. Besides, the GI50 in the experiment with KM12 and with 786-0 was > 100 µM (inactive) each time.
